Test results as given in US20060025419A1, “Imidazoquinoxaline compound for the treatment of melanoma” (priority 2004, published 2006).

Tests used:
[1] = test system: Normal human epidermal melanocytes (NHEM); experiment: Growth of cultured cells, hemocytometer counting; assay type: cell-based
From the text: A super-repressor form of human IκBα (S32, 36A) resistant to degradation and mutant IKKβ […]) was kindly provided by Javier […] Cancer Center, University of California-San Diego School of Medicine). Antibodies to IKKα (H-744), IKKβ (H-470), Bcl-2, Bax and AIF were purchased from Santa Cruz Biotechnology, Inc. (Santa Cruz, Calif.). […] N-acetyl-L-cysteine (NAC) and Tiron were from Sigma-Aldrich (St. Louis, Mo.). Normal human epidermal melanocytes (NHEM) were provided by the Skin Disease Research Center in Vanderbilt University School of Medicine. NHEM were cultured in 154 medium with 1× human melanocyte growth supplement (Cascade Biologicals, Inc.). The melanoma cell lines, Sk Mel5, A375 and Hs294T, originally established from human metastatic melanoma, were purchased from American Type Culture Collection and cultured in DMEM: Ham's F-12 medium containing 10% FBS, 2 mM of L-glutamine, 100 μM of MEM Non-Essential Amino Acids (Life Technologies, Inc.), and 1 mM of sodium pyruvate (Sigma Chemical Co.). Aberrant activation of NF-κB has been associated with carcinogenesis, and constitutively high IKK activity has been detected in many tumor types, including human melanoma (Yang & Richmond, 2001; […] et al., 2003; […] et al., 2003). IKK is a major regulator of the NF-κB pathway and therefore represents an attractive therapeutic target in advanced cancers. […] After three days of culture, the cell numbers were determined by hemocytometer counting (Table 1).

[2] = Body weight and tolerability in treated tumor-bearing mice; assay type: in vivo
[3] = test system: melanoma tumor; experiment: H&E and TUNEL staining of melanoma tumor sections; assay type: in vivo, mice
Description: FIGS. 4A-4H. […] Paraffin-embedded tumor tissues were subjected to H&E staining (FIGS. 4C & D) and DeadEnd Fluorometric TUNEL-assay for detection of apoptosis (FIGS. 4E & F). The TUNEL-positive cells are visualized in green fluorescence in a red (Propidium Iodide) background by fluorescence microscopy. […] After 36 h incubation, cells were collected and fixed with 1% formaldehyde and 70% ice-cold ethanol. The apoptotic cells were examined using TUNEL-assay and analyzed by flow cytometry through measuring fluorescein-12-dUTP at 520 nm. The apoptotic rate is indicated in each box. Data shown are represented one of three independent experiments. […] Cells were fixed and stained with Propidium iodide. Cell fluorescence was measured by flow cytometry and the data were analyzed using DNA content histogram deconvolution software (Multicycle from Phoenix Flow Systems). […]
In melanoma, constitutive activation of NF-κB confers tumor survival capacity and escape from apoptosis (Richmond, 2002). […] Apoptotic cells were labeled using DeadEnd Fluorometric TUNEL reagent and analyzed by flow cytometry. […] Thirty-six hours after transfection, cells were collected, labeled with TUNEL reagent and analyzed by flow cytometry. […] Induction of DNA fragmentation, a hallmark of apoptosis, was evaluated by staining DNA with ethidium bromide followed by quantization by FACS analysis.

[4] = test system: NF-κB; experiment: NF-κB-dependent luciferase reporter assay; assay type: cell-based, human; conditions: 36 h
Description: FIGS. 2A-2D. […] SK-Mel-5 cells were plated in 6-well plates (1.5×10^5 cells per well) and then cotransfected with 1 μg of HIV long terminal repeat NF-κB-luciferase vector and β-galactosidase vector DNA using Lipofectamine Plus reagent. Twenty-four hours after transfection, cells in duplicate plates were treated with 0, 0.1, 1 and 10 μM of BMS-345541in DMSO and incubated for an additional 36 h. Cell extract was prepared and luciferase activity was detected. Luciferase activity was normalized to β-galactosidase activity. […] ATP. The [γ-^32P]-labeled IκBα protein was visualized by autoradiography. […] The supernatants from B were cleared by centrifugation, or (FIG. 2D) sera were collected from mice, and subjected to ELISA assay for CXCL1 according to the manufacture's protocol. Data shown are from a representative data set from two experiments performed in duplicate (total n=4 for each point). For ELISA; the mean value is representative of serum samples from five mice.

SMILES: Cc1ccc2nc(NCCN)c3ncc(C)n3c2c1.Cl [BMS-345541, 4(2′-aminoethyl)amino-1,8-dimethylimidazo(1,2-a)quinoxaline]
- cell number after three days of culture ([1]; 0.1 μM): 4.8 ± 0.28
- cell number after three days of culture ([1]; 1.0 μM): 4.9 ± 0.38
- cell number after three days of culture ([1]; 10 μM): 0.18 ± 0.04
- average loss of body weight ([2]; 10 mg/kg orally once daily): 5%
- average loss of body weight ([2]; 25 mg/kg orally once daily): 9%
- average loss of body weight ([2]; 75 mg/kg orally once daily): 14%
- tolerability in mice ([2]; oral, once daily, 21 days): well tolerated
- nuclear apoptosis in tumor sections (H&E, TUNEL) ([3]; 25 mg/kg daily): obvious nuclear condensation and DNA fragment staining
- TUNEL staining of tumor sections ([3]; 75 mg/kg): TUNEL staining appeared extensively over the tumor sections
- reduction in NF-κB-dependent luciferase activity ([4]; SK-Mel-5, 0.1 μM): 36%
- reduction in NF-κB-dependent luciferase activity ([4]; SK-Mel-5, 1.0 μM): 75%
- reduction in NF-κB-dependent luciferase activity ([4]; SK-Mel-5, 10 μM): 95%
